According to patent US9617283B2, “Bicyclic heterocycle compounds and their uses in therapy” (ASTEX THERAPEUTICS LIMITED, priority 2012, dated 2017):
Structures can show the parent of a compound that is named as a salt. Where two headings read alike, the source gives them in different places.

Experiments:
[1] = tested on: EVSA-T (human breast carcinoma); test: Anti-proliferative activity, Alamar Blue assay, EVSA-T; type: cell-based
Method: Anti-Proliferative Activity
The method is based on the ability of viable cells to reduce resazurin to its fluorescent product resorufin. For each proliferation assay cells are plated onto 96 well plates and allowed to recover for 16 hours prior to the addition of inhibitor compounds (in 0.1% DMSO v/v) for a further 72 hours. […] The anti-proliferative activities of compounds of the invention can be determined by measuring the ability of the compounds to inhibit growth in 3 cancer cell lines: • EVSA-T (human breast carcinoma) DSMZ cat. no.

[2] = target: T1, BIR3 domain of human XIAP (residues 252-350) (Homo sapiens, UniProt P98170); test: XIAP in vitro competitive displacement binding assay (fluorescence polarization); conditions: 1 h, percent inhibition (PI) at 0.04 μM; read-out: Xiap IC50 or PI μM
T1 construct: BIR3 domain of human XIAP (residues 252-350); His-tag (cleaved yes); made in house; host or cells: Escherichia coli

[3] = Homo sapiens, EVSA-T, read-out: EC50 in EVSA-T cell line assays
[4] = Homo sapiens, EVSA-T, 72 h, EVSA-T cell line, 72 hours, Alamar Blue; read-out: EVSA-T prolif
[5] = Homo sapiens, EVSA-T; read-out: EC50 in EVSA-T cell line assays

T1 sequence (P98170 252-350): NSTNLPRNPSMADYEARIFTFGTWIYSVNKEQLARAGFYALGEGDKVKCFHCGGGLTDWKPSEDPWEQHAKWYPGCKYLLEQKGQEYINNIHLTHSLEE

| SMILES | EVSA-T prolif μM ([1]; EVSA-T cell line, % at 0.001 μM) [% at] | EC50 [1, 3] [nM] | inhibition at 0.04 µM [2] [%] | EC50 [1, 4] [nM] | EC50 [1, 5] [nM] |
| --- | --- | --- | --- | --- | --- |
| C[C@@H]1CN(CC(=O)N2CC(C)(C)c3cnc(Cc4ccc(F)cc4)cc32)[C@@H](CN2Cc3ncccc3C2=O)CN1 [Example 20, 6-{[(2R,5R)-1-(2-{6-[(4-Fluorophenyl)methyl]-3,3-dimethyl-1H,2H,3H-pyrrolo[3,2-c]pyridin-1-yl}-2-oxoethyl)-5-methylpiperazin-2-yl]methyl}-5H,6H,7H-pyrrolo[3,4-b]pyridin-5-one, dihydrochloride] | 92 | < 1000 | 76 |  |  |
| C[C@@H]1CN(CC(=O)N2CC(C)(C)c3ncc(Cc4ccc(F)cc4)cc32)[C@@H](CN2CCCCC2=O)CN1 [Example 21, 1-{[(2R,5R)-1-(2-{6-[(4-Fluorophenyl)methyl]-3,3-dimethyl-1H,2H,3H-pyrrolo[3,2-b]pyridin-1-yl}-2-oxoethyl)-5-methylpiperazin-2-yl]methyl}piperidin-2-one, dihydrochloride] |  | < 1000 | 44 | 2.1 |  |
| CC1=C(C)C(=O)N(C[C@H]2CN[C@H](C)CN2CC(=O)N2CC(C)(C)c3ncc(Cc4ccc(F)cc4F)cc32)C1 [Example 24, 1-{[(2R,5R)-1-(2-{6-[(2,4-Difluorophenyl)methyl]-3,3-dimethyl-1H,2H,3H-pyrrolo[3,2-b]pyridin-1-yl}-2-oxoethyl)-5-methylpiperazin-2-yl]methyl}-3,4-dimethyl-2,5-dihydro-1H-pyrrol-2-one, dihydrochloride] |  |  | 72 | 1.7 | < 1000 |
| CCCC(F)(F)c1cc2c(cn1)C(C)(C)CN2C(=O)CN1C[C@@H](C)NC[C@@H]1CN1C[C@H](C)OCC1=O [Example 26, (6S)-4-{[(2R,5R)-1-{2-[6-(1,1-Difluorobutyl)-3,3-dimethyl-1H,2H,3H-pyrrolo[3,2-c]pyridin-1-yl]-2-oxoethyl}-5-methylpiperazin-2-yl]methyl}-6-methylmorpholin-3-one, dihydrochloride] |  |  | 60 | 27 | < 1000 |
| CCCC(F)(F)c1cc2c(cn1)C(C)(C)CN2C(=O)CN1C[C@@H](C)NC[C@@H]1CN1Cc2ccccc2C1=O [Example 27, 2-{[(2R,5R)-1-{2-[6-(1,1-Difluorobutyl)-3,3-dimethyl-1H,2H,3H-pyrrolo[3,2-c]pyridin-1-yl]-2-oxoethyl}-5-methylpiperazin-2-yl]methyl}-2,3-dihydro-1H-isoindol-1-one, dihydrochloride] |  |  | 75 | 5.2 | < 1000 |
| CCCC(F)(F)c1cc2c(cn1)C(C)(C)CN2C(=O)CN1C[C@@H](C)NC[C@@H]1CN1CC(C)=C(C)C1=O [Example 28, 1-{[(2R,5R)-1-{2-[6-(1,1-Difluorobutyl)-3,3-dimethyl-1H,2H,3H-pyrrolo[3,2-c]pyridin-1-yl]-2-oxoethyl}-5-methylpiperazin-2-yl]methyl}-3,4-dimethyl-2,5-dihydro-1H-pyrrol-2-one, dihydrochloride] |  |  | 67 | 10 | < 1000 |
| C[C@@H]1CN(CC(=O)N2CC(C)(C)c3ncc(Cc4ccc(F)cc4F)cc32)[C@@H](CN2CC(C)(C)CC2=O)CN1 [Example 30, 1-{[(2R,5R)-1-(2-{6-[(2,4-Difluorophenyl)methyl]-3,3-dimethyl-1H,2H,3H-pyrrolo[3,2-b]pyridin-1-yl}-2-oxoethyl)-5-methylpiperazin-2-yl]methyl}-4,4-dimethylpyrrolidin-2-one dihydrochloride] |  | < 1000 | 70 | 1.1 |  |
| C[C@@H]1CN(CC(=O)N2CC(C)(C)c3cnc(Cc4ccc(F)cc4F)cc32)[C@@H](CN2CC(C)(C)CC2=O)CN1 [Example 32, 1-{[(2R,5R)-1-(2-{6-[(2,4-Difluorophenyl)methyl]-3,3-dimethyl-1H,2H,3H-pyrrolo[3,2-c]pyridin-1-yl}-2-oxoethyl)-5-methylpiperazin-2-yl]methyl}-4,4-dimethylpyrrolidin-2-one dihydrochloride] |  |  | 71 | 1.3 | < 1000 |
| CC1=C(C)C(=O)N(C[C@H]2CN[C@H](C)CN2CC(=O)N2CC(C)(C)c3cnc(Cc4ccc(F)cc4F)cc32)C1 [Example 33, 1-{[(2R,5R)-1-(2-{6-[(2,4-Difluorophenyl)methyl]-3,3-dimethyl-1H,2H,3H-pyrrolo[3,2-c]pyridin-1-yl}-2-oxoethyl)-5-methylpiperazin-2-yl]methyl}-3,4-dimethyl-2,5-dihydro-1H-pyrrol-2-one dihydrochloride] |  |  | 81 | 1.1 | < 1000 |
| CC1=C(C)C(=O)N(C[C@H]2CN[C@H](C)CN2CC(=O)N2CC(C)(C)c3cnc(Cc4ccc(F)cc4)cc32)C1 [Example 36, 1-{[(2R,5R)-1-(2-{6-[(4-Fluorophenyl)methyl]-3,3-dimethyl-1H,2H,3H-pyrrolo[3,2-c]pyridin-1-yl}-2-oxoethyl)-5-methylpiperazin-2-yl]methyl}-3,4-dimethyl-2,5-dihydro-1H-pyrrol-2-one dihydrochloride] |  |  | 74 | 1.7 | < 1000 |
| CCCC(F)(F)c1cc2c(cn1)C(C)(C)CN2C(=O)CN1C[C@@H](C)NC[C@@H]1CN1CC(C)(C)CC1=O [Example 38, 1-{[(2R,5R-1-{2-[6-(1,1-Difluorobutyl)-3,3-dimethyl-1H,2H,3H-pyrrolo[3,2-c]pyridin-1-yl]-2-oxoethyl}-5-methylpiperazin-2-yl]methyl}-4,4-dimethylpyrrolidin-2-one dihydrochloride] |  |  | 76 | 13 | < 1000 |
| CC1=C(C)C(=O)N(C[C@H]2CN[C@H](C)CN2CC(=O)N2CC(C)(C)c3nnc(Cc4ccc(F)cc4F)cc32)C1 [Example 50, 1-{[(2R,5R)-1-(2-{3-[(2,4-Difluorophenyl)methyl]-7,7-dimethyl-5H,6H,7H-pyrrolo[3,2-c]pyridazin-5-yl}-2-oxoethyl)-5-methylpiperazin-2-yl]methyl}-3,4-dimethyl-2,5-dihydro-1H-pyrrol-2-one L-lactate] |  |  | 66 | 1.2 | < 1000 |
| CC1=C(C)C(=O)N(C[C@H]2CN[C@H](C)CN2CC(=O)N2CC(C)(C)c3nnc(Cc4ccc(F)cc4)cc32)C1 [Example 51, 1-{[(2R,5R)-1-(2-{3-[(4-Fluorophenyl)methyl]-7,7-dimethyl-5H,6H,7H-pyrrolo[3,2-c]pyridazin-5-yl}-2-oxoethyl)-5-methylpiperazin-2-yl]methyl}-3,4-dimethyl-2,5-dihydro-1H-pyrrol-2-one L-lactate] |  |  | 48 | 4.9 | < 1000 |
| CCCC(F)(F)c1cc2c(nn1)C(C)(C)CN2C(=O)CN1C[C@@H](C)NC[C@@H]1CN1Cc2ccccc2C1=O [Example 59, 2-{[(2R,5R)-1-{2-[3-(1,1-Difluorobutyl)-7,7-dimethyl-5H,6H,7H-pyrrolo[3,2-c]pyridazin-5-yl]-2-oxoethyl}-5-methylpiperazin-2-yl]methyl}-2,3-dihydro-1H-isoindol-1-one dihydrochloride] |  |  | 68 | 1.6 | < 1000 |
| C[C@@H]1CN(CC(=O)N2CC(C)(C)c3cnc(Cc4ccc(F)cc4)cc32)[C@@H](CN2Cc3ccccc3C2=O)CN1 [Example 60, 2-{[(2R,5R)-1-(2-{6-[(4-Fluorophenyl)methyl]-3,3-dimethyl-1H,2H,3H-pyrrolo[3,2-c]pyridin-1-yl}-2-oxoethyl)-5-methylpiperazin-2-yl]methyl}-2,3-dihydro-1H-isoindol-1-one dihydrochloride] |  |  | 94 | 0.29 | < 1000 |
| CCCC(F)(F)c1cc2c(cn1)C(C)(C)CN2C(=O)CN1C[C@@H](C)NC[C@@H]1CN1Cc2ncccc2C1=O [Example 68, 6-{[(2R,5R)-1-{2-[6-(1,1-Difluorobutyl)-3,3-dimethyl-1H,2H,3H-pyrrolo[3,2-c]pyridin-1-yl]-2-oxoethyl}-5-methylpiperazin-2-yl]methyl}-5H,6H,7H-pyrrolo[3,4-b]pyridin-5-one dihydrochloride] |  |  | 72 | 2.4 | < 1000 |
| C[C@@H]1CN(CC(=O)N2CC(C)(C)c3cnc(Cc4ccc(F)cc4F)cc32)[C@@H](CN2C[C@@H](C)OCC2=O)CN1 [Example 69, (6R)-4-{[(2R,5R)-1-(2-{6-[(2,4-Difluorophenyl)methyl]-3,3-dimethyl-1H,2H,3H-pyrrolo[3,2-c]pyridin-1-yl}-2-oxoethyl)-5-methylpiperazin-2-yl]methyl}-6-methylmorpholin-3-one dihydrochloride] |  |  | 68 | 2.6 | < 1000 |
| C[C@@H]1CC(=O)N(C[C@H]2CN[C@H](C)CN2CC(=O)N2CC(C)(C)c3ncc(Cc4ccc(F)cc4F)cc32)C1 [Example 70, (4R)-1-{[(2R,5R)-1-(2-{6-[(2,4-Difluorophenyl)methyl]-3,3-dimethyl-1H,2H,3H-pyrrolo[3,2-b]pyridin-1-yl}-2-oxoethyl)-5-methylpiperazin-2-yl]methyl}-4-methylpyrrolidin-2-one dihydrochloride] |  |  | 55 | 3.2 | < 1000 |
| C[C@@H]1CC(=O)N(C[C@H]2CN[C@H](C)CN2CC(=O)N2CC(C)(C)c3cnc(Cc4ccc(F)cc4F)cc32)C1 [Example 71, (4R)-1-{[(2R,5R)-1-(2-{6-[(2,4-Difluorophenyl)methyl]-3,3-dimethyl-1H,2H,3H-pyrrolo[3,2-c]pyridin-1-yl}-2-oxoethyl)-5-methylpiperazin-2-yl]methyl}-4-methylpyrrolidin-2-one dihydrochloride] |  |  | 64 | 2.5 | < 1000 |
